These compounds were tested against T1, human cGAS (residues 161-522) (Homo sapiens, UniProt Q8N884) (assay: cGAS Activity Assay—Malachite Green). Conditions: recombinant purified human cGAS 25 nM; 80 μM ATP, 80 μM GTP, 100 nM ISD; 4 hour at RT; phosphate detection by Malachite Green.
T1 construct: human cGAS (residues 161-522); made in house
Format: biochemical
Method: Compounds were tested for cGAS inhibition in a coupled enzymatic assay based on Phosphate detection by Malachite Green. Final assay conditions were 20 mM TRIS pH 7.5 (Applichem), 5 mM MgCl2 (Sigma) and 0.01% BSA (Sigma) supplemented with 80 μM ATP (Sigma), 80 μM GTP (Sigma) and 100 nM Interferon Stimulating DNA (ISD) (Microsynth). Recombinantly expressed purified human cGAS (residues 161-522) was used at 25 nM.
All compounds were prepared as 10 mM stock solutions in DMSO and a 16 pt dilution series in DMSO with a dilution factor of 2.5 was prepared. 1 μL of DMSO dilution series was transferred to 32.3 μL reaction buffer, mixed by pipetting up/down, spun for 1 minute at 3000 rpm and was visually inspected for precipitation. 5 μL of 3-fold enzyme stock solution were transferred to an empty 384-well Black/Clear Flat Bottom Polystyrene NBS (Corning) rows 3-24. Rows 1-2 were filled with assay buffer. Plates were spun 10 seconds at 1000 rpm (164×g). 5 μL of compound intermediate dilution was added and mixed by pipetting up/down to rows 3-24. Rows 1-2 were filled with 3.1% DMSO assay buffer. Plates were spun 10 seconds at 1000 rpm (164×g). 5 μL 3-fold Nucleotide/DNA mix was added to all wells to start the reaction. Plates were spun 10 seconds at 1000 rpm (164×g) and incubated for 4 hour at room temperature (RT) in the dark. 5 μL 4 U/ml PPase (Sigma) were added to all wells. Plates spun 10 seconds at 1000 rpm (164×g). 10 μL BioMol green Solution (Enzo Life Sciences) was added to all wells. Plates spun 10 seconds at 1000 rpm (164×g) and incubated 30 minutes at RT in the dark. Absorbance data was collected 620 nm on an EnVision Multilable Reader (Perkin Elmer) and the following measurement settings were used: excitation filter photometric was 620 nm; excitation from the top; measurement height was 1 mm; number of flashes was 30; number of flashes integrated was 1.
All plates are checked for abnormalities and outliers in the Blank Control (no protein, row 1) and the Neutral Control (no compound, row 2) are excluded using the 3*SD rule. Data was normalized to 0 and 100% by Blank and Neutral Control and each curve was fitted and judged using the 4 parameter logistic equation to determine the IC50 for cGAS inhibition.
Table 13 provides IC50 values (μM) for cGAS inhibition obtained for particular examples of the present invention as measured by the above-described assay.

T1 sequence (Q8N884 161-522): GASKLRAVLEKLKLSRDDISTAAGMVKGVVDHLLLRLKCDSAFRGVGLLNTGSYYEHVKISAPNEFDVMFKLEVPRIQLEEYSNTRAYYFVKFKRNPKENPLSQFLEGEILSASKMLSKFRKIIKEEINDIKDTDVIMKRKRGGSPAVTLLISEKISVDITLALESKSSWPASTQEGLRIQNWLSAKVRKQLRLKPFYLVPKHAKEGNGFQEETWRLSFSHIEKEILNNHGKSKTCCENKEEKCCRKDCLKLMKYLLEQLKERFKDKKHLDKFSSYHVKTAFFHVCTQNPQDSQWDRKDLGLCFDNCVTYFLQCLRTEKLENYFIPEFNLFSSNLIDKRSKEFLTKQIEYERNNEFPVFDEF

Row | SMILES | IC50 [nM]
1 | Cc1oncc1/C(O)=C(\C#N)C(=O)Nc1ccc(C(=O)N(C)C)cc1 [Example 35, 4-[[(Z)-2-cyano-3-hydroxy-3-(5-methylisoxazol-4-yl)prop-2-enoyl]amino]-N,N-dimethyl-benzamide] | 710
2 | CNC(=O)c1ccc(NC(=O)/C(C#N)=C(\O)c2cnoc2C)cc1 [Example 36, 4-[[(Z)-2-cyano-3-hydroxy-3-(5-methylisoxazol-4-yl)prop-2-enoyl]amino]-N-methyl-benzamide] | 370
3 | COc1ccc(NC(=O)/C(C#N)=C(\O)c2cnoc2C)nc1 [Example 37, (Z)-2-cyano-3-hydroxy-N-(5-methoxy-2-pyridyl)-3-(5-methylisoxazol-4-yl)prop-2-enamide] | 420
4 | Cc1oncc1/C(O)=C(\C#N)C(=O)Nc1ccc(C(=O)c2ccccc2)cc1 [Example 38, (Z)-N-(4-benzoylphenyl)-2-cyano-3-hydroxy-3-(5-methylisoxazol-4-yl)prop-2-enamide] | 1160
5 | COc1ccc(S(=O)(=O)c2ccc(NC(=O)/C(C#N)=C(\O)c3cnoc3C)cc2)cc1 [Example 39, (Z)-2-cyano-3-hydroxy-N-(4-((4-methoxyphenyl)sulfonyl)phenyl)-3-(5-methylisoxazol-4-yl)acrylamide] | 490
6 | Cc1oncc1/C(O)=C(\C#N)C(=O)Nc1ccc(S(=O)(=O)Nc2nccs2)cc1 [Example 40, (Z)-2-cyano-3-hydroxy-3-(5-methylisoxazol-4-yl)-N-[4-(thiazol-2-ylsulfamoyl)phenyl]prop-2-enamide] | 140
7 | Cc1oncc1/C(O)=C(\C#N)C(=O)Nc1ccc(OC2COC2)cc1 [Example 41, (Z)-2-cyano-3-hydroxy-3-(5-methylisoxazol-4-yl)-N-[4-(oxetan-3-yloxy)phenyl]prop-2-enamide] | 1290
8 | CC(=O)Nc1ccc(NC(=O)/C(C#N)=C(\O)c2cnoc2C)cc1 [Example 42, (Z)-N-(4-acetamidophenyl)-2-cyano-3-hydroxy-3-(5-methylisoxazol-4-yl)prop-2-enamide] | 270
9 | Cc1nnc(NS(=O)(=O)c2ccc(NC(=O)/C(C#N)=C(\O)c3cnoc3C)cc2)s1 [Example 43, (Z)-2-cyano-3-hydroxy-3-(5-methylisoxazol-4-yl)-N-[4-[(5-methyl-1,3,4-thiadiazol-2-yl)sulfamoyl]phenyl]prop-2-enamide] | 210
10 | Cc1oncc1/C(O)=C(\C#N)C(=O)Nc1ccc(C(N)=O)cc1 [Example 44, 4-[[(Z)-2-cyano-3-hydroxy-3-(5-methylisoxazol-4-yl)prop-2-enoyl]amino]benzamide] | 240
11 | Cc1oncc1/C(O)=C(\C#N)C(=O)Nc1ccc(S(=O)(=O)Nc2ncccn2)cc1 [Example 45, (Z)-2-cyano-3-hydroxy-3-(5-methylisoxazol-4-yl)-N-[4-(pyrimidin-2-ylsulfamoyl)phenyl]prop-2-enamide] | 90
12 | COc1cnc(NC(=O)/C(C#N)=C(\O)c2cnoc2C)nc1 [Example 46, (Z)-2-cyano-3-hydroxy-N-(5-methoxypyrimidin-2-yl)-3-(5-methylisoxazol-4-yl)prop-2-enamide] | 70
13 | Cc1oncc1/C(O)=C(\C#N)C(=O)Nc1ccc(S(=O)(=O)N2CCOCC2)cc1 [Example 47, (Z)-2-cyano-3-hydroxy-3-(5-methylisoxazol-4-yl)-N-(4-(morpholinosulfonyl)phenyl)acrylamide] | 200
14 | CCCNS(=O)(=O)c1ccc(NC(=O)/C(C#N)=C(\O)c2cnoc2C)cc1 [Example 48, (Z)-2-cyano-3-hydroxy-3-(5-methylisoxazol-4-yl)-N-(4-(N-propylsulfamoyl)phenyl) acrylamide] | 100
15 | Cc1oncc1/C(O)=C(\C#N)C(=O)Nc1cccc(S(=O)(=O)c2ccccc2)c1 [Example 49, (Z)-2-cyano-3-hydroxy-3-(5-methylisoxazol-4-yl)-N-(3-(phenylsulfonyl)phenyl) acrylamide] | 2500
16 | Cc1cc(C(F)(F)F)ccc1NC(=O)/C(C#N)=C(\O)c1cnoc1C [Example 50, (Z)-2-cyano-3-hydroxy-N-(2-methyl-4-(trifluoromethyl)phenyl)-3-(5-methylisoxazol-4-yl)acrylamide] | 1050

Row | SMILES | IC50 [nM]
17 | Cc1oncc1/C(O)=C(\C#N)C(=O)Nc1cccc(-c2ccccc2)c1 [Example 51, (Z)-2-cyano-3-hydroxy-3-(5-methylisoxazol-4-yl)-N-(3-phenylphenyl) prop-2-enamide] | 1990
18 | Cc1oncc1/C(O)=C(\C#N)C(=O)Nc1cccc(Oc2ccccc2)c1 [Example 52, (Z)-2-cyano-3-hydroxy-3-(5-methylisoxazol-4-yl)-N-(3-phenoxyphenyl)acrylamide] | 1740
19 | CCN(CC)C(=O)CNS(=O)(=O)c1ccc(NC(=O)/C(C#N)=C(\O)c2cnoc2C)cc1 [Example 53, (Z)-2-cyano-N-(4-(N-(2-(diethylamino)-2-oxoethyl)sulfamoyl)phenyl)-3-hydroxy-3-(5-methylisoxazol-4-yl)acrylamide] | 300
20 | Cc1oncc1/C(O)=C(\C#N)C(=O)Nc1ccc(S(=O)(=O)Nc2ccccc2)cc1 [Example 54, (Z)-2-cyano-3-hydroxy-3-(5-methylisoxazol-4-yl)-N-(4-(N-phenylsulfamoyl)phenyl) acrylamide] | 220
21 | Cc1oncc1/C(O)=C(\C#N)C(=O)Nc1ccc(Sc2ccccc2)cc1 [Example 55, (Z)-2-cyano-3-hydroxy-3-(5-methylisoxazol-4-yl)-N-(4-(phenylthio)phenyl) acrylamide] | 2020
22 | Cc1oncc1/C(O)=C(\C#N)C(=O)Nc1ccc(C(F)(F)F)cc1Cl [Example 56, (Z)-N-(2-chloro-4-(trifluoromethyl)phenyl)-2-cyano-3-hydroxy-3-(5-methylisoxazol-4-yl)acrylamide] | 740
23 | Cc1oncc1/C(O)=C(\C#N)C(=O)Nc1ccc(S(=O)(=O)Nc2ccc(C#N)cc2)cc1 [Example 57, (Z)-2-cyano-N-(4-(N-(4-cyanophenyl)sulfamoyl)phenyl)-3-hydroxy-3-(5-methylisoxazol-4-yl)acrylamide] | 290
24 | Cc1oncc1C(=O)N(c1ccc(C#N)cc1)S(=O)(=O)c1ccc(NC(=O)/C(C#N)=C(\O)c2cnoc2C)cc1 [Example 58, (Z)-N-((4-(2-cyano-3-hydroxy-3-(5-methylisoxazol-4-yl)acrylamido)phenyl)sulfonyl)-N-(4-cyanophenyl)-5-methylisoxazole-4-carboxamide] | 330
25 | Cc1noc(C)c1NS(=O)(=O)c1ccc(NC(=O)/C(C#N)=C(\O)c2cnoc2C)cc1 [Example 59, (Z)-2-cyano-N-(4-(N-(3,5-dimethylisoxazol-4-yl)sulfamoyl)phenyl)-3-hydroxy-3-(5-methylisoxazol-4-yl)acrylamide] | 450
26 | Cc1noc(C)c1N(C(=O)c1cnoc1C)S(=O)(=O)c1ccc(NC(=O)/C(C#N)=C(\O)c2cnoc2C)cc1 [Example 60] | 520
27 | Cc1oncc1/C(O)=C(\C#N)C(=O)Nc1ccc(S(C)(=O)=O)cc1Cl [Example 61, (Z)-N-(2-chloro-4-methylsulfonyl-phenyl)-2-cyano-3-hydroxy-3-(5-methylisoxazol-4-yl)prop-2-enamide] | 110
28 | Cc1oncc1/C(O)=C(\C#N)C(=O)Nc1ccc(Oc2ccccc2)cc1 [Example 62, (Z)-2-cyano-3-hydroxy-3-(5-methylisoxazol-4-yl)-N-(4-phenoxyphenyl)acrylamide] | 1560
29 | Cc1oncc1/C(O)=C(\C#N)C(=O)Nc1ccc(Oc2ccc(Cl)cc2)cc1 [Example 63, (Z)-N-(4-(4-chlorophenoxy)phenyl)-2-cyano-3-hydroxy-3-(5-methylisoxazol-4-yl)acrylamide] | 3460
30 | Cc1oncc1/C(O)=C(\C#N)C(=O)Nc1ccc(-c2ccccc2)cc1 [Example 64, (Z)-2-cyano-3-hydroxy-3-(5-methylisoxazol-4-yl)-N-(4-phenylphenyl)-prop-2-enamide] | 1730
31 | Cc1oncc1/C(O)=C(\C#N)C(=O)Nc1ccc(C(F)(F)F)c(Cl)c1 [Example 65, (Z)-N-(3-chloro-4-(trifluoromethyl)phenyl)-2-cyano-3-hydroxy-3-(5-methylisoxazol-4-yl)acrylamide] | 1670
32 | Cc1oncc1/C(O)=C(\C#N)C(=O)Nc1ccc(C(F)(F)F)cn1 [Example 66, (Z)-2-cyano-3-hydroxy-3-(5-methylisoxazol-4-yl)-N-(5-(trifluoromethyl)pyridin-2-yl)acrylamide] | 490
